Assay results taken from US6479435B1, “Diaryl ethers and processes for their preparation and herbicidal and desiccant compositions containing them” (ISK Americas Incorporated, priority 1997, dated 2002).

Tests used:
Type in all cases: in vivo
[1] = test system: common ragweed (Ambrosia artemisiifolia L., AMBEL); experiment: Post-emerge greenhouse herbicide test, phytotoxicity rating; conditions: 14 days after application, scale 0-100
Procedure, shortened: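 Compounds in acetone with 0.25% v/v non-ionic surfactant were track-sprayed at 187 l/ha over plants at the 2-3 leaf stage, at 63 to 1000 g ai/ha. Pots were bottom-watered. Injury was scored visually 14 days later on a 0-100 scale, where 0 is no damage and 100 is complete plant death.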

[2] = test system: green foxtail (Setaria viridis, SETVI); experiment: Pre-emerge greenhouse herbicide test, phytotoxicity rating; conditions: Setaria viridis, pre-emergence, 336 h, 14 days after application, rating scale 0-100; for pest or weed control at 125 g/ha: Rate 125 g al/ha; for pest or weed control at 500 g/ha: Rate 500 g al/ha
Procedure, shortened: (§1)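 Seeds sown in sandy loam mix one day before track-sprayer application of compounds in acetone at 125–1000 g ai/ha (187 l/ha), then surface-watered to incorporate and bottom-watered. Visual rating 14 days after application on a 0–100 scale (0 = no damage, 100 = all plants dead).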

[3] = test system: barnyardgrass (Echinochloa crusgalli, ECHCG); experiment: as above; conditions: Echinochloa crus-galli, pre-emergence, 336 h, 14 days after application, rating scale 0-100; for pest or weed control at 125 g/ha: Rate 125 g al/ha; for pest or weed control at 500 g/ha: Rate 500 g al/ha
Procedure, shortened: as §1

[4] = test system: Johnsongrass (Sorghum halepense, SORHA); experiment: as above; conditions: Sorghum halepense, pre-emergence, 336 h, 14 days after application, rating scale 0-100; for pest or weed control at 125 g/ha: Rate 125 g al/ha; for pest or weed control at 500 g/ha: Rate 500 g al/ha
Procedure, shortened: as §1

[5] = test system: common ragweed (Ambrosia artemisiifolia L., AMBEL); experiment: as above; conditions: 14 days after application, rating scale 0-100
Procedure, shortened: as §1

Broadleaf Weeds = experiment: Post-emergent application in combination with other herbicides, percent control of broadleaf weeds; conditions: 31.25 g ai/ha
Protocol: All test compounds were dissolved in acetone and applied to the test units in a volume of 187 l/ha. Test materials were applied at rates ranging from 125 g ai/ha to 1000 g ai/ha using a track sprayer equipped with a TJ8001E even flow flat fan spray nozzle. Plants were arranged on a shelf so that the top of the canopy (post-emerge) or top of the soil surface (pre-emerge) was 40-45 cm below the nozzle. Pressurized air was used to force the test solution through the nozzle as it was mechanically advanced (via electrically driven chain drive) over the top of all test plants/pots. This application simulates a typical commercial field herbicide application. […] For post-emerge tests, seeds were planted 8-21 days prior to the test to allow emergence and good foliage development prior to application of the test substances. At the time of the post-emerge application, plants of all species were usually at the 2-3 leaf stage of development. Post-emerge test units were always bottom-watered. At 14 days after application of the test materials, phytotoxicity ratings were recorded. A rating scale of 0-100 was used as previously described in Research Methods in Weed Science, 2nd edition, B. Truelove, Ed., Southern Weed Science Society, Auburn University, Auburn, Ala., 1977. Briefly, “0” corresponds to no damage and “100” corresponds to complete death of all plants in the test unit. This scale was used both to determine efficacy against weed species and damage to crop species. Herbicide activity data for various compounds of this invention, which are shown by compound number in Tables 1-9, are shown in Tables 13 and 14. […] (Note: Weed species abbreviations are from the Composite List of Weeds published by the Weed Science Society of America, 1989.) The following examples illustrate the utility of combinations of compounds of this invention and existing herbicides. The methods used are identical to those for the application of single compounds except the commercial formulations of existing herbicides were added to the spray mixture in the appropriate amounts before spraying. Combination Example 3. Post-emergent Application of Compound 9-1 with Nicosulfuron Combination Example 4. Postemergent Application of Compound 9-1 with Pyridate

| SMILES | phytotoxicity rating AMBEL ([1]; rate 63 g ai/ha) | phytotoxicity rating AMBEL ([1]; rate 500 g ai/ha) | pest or weed control at 125 g/ha [2] [%] | pest or weed control at 500 g/ha [2] [%] | pest or weed control at 125 g/ha [3] [%] | pest or weed control at 500 g/ha [3] [%] | pest or weed control at 125 g/ha [4] [%] | pest or weed control at 500 g/ha [4] [%] | AMBEL phytotoxicity rating ([5]; Rate 125 g al/ha) | AMBEL phytotoxicity rating ([5]; Rate 500 g al/ha) | further results |
| --- | --- | --- | --- | --- | --- | --- | --- | --- | --- | --- | --- |
| O=c1n(-c2cc(Oc3ncccc3C(F)(F)F)c(Cl)cc2F)c(=S)n2n1CCCC2 [Compound 8-18, 2-[4-chloro-2-fluoro-5-(3-trifluoromethyl-2pyridyloxy)phenyl]hexahydro-3-thioxo-1H-[1,2,4]triazolo[1,2-a]pyridazin-1-one] | 95 | 60 | 95 | 100 | 40 | 80 | 40 | 100 | 100 | 95 |  |
| O=c1n(-c2cc(Oc3ncccn3)c(Cl)cc2F)c(=S)n2n1CCCC2 [Compound 8-29, 2-[4-chloro-2-fluoro-5-(2-pyrimidyloxy)phenyl]hexahydro-3-thioxo-1H-[1,2,4]triazolo[1,2-a]pyridazin-1-one] | 90 | 100 | 100 | 100 | 100 | 100 | 100 | 100 | 100 | 100 |  |
| Nn1c(C(F)(F)F)cc(=O)n(-c2cc(Oc3ncccc3[N+](=O)[O-])c(Cl)cc2F)c1=O [Compound 9-1, 1-amino-3-[4-chloro-2-fluoro-5-(3-nitro-2-pyridyloxy)phenyl]-6-trifluoromethyl-1,2,3,4-tetrahydropyrimidine-2,4-dione] |  |  | 99 | 100 | 95 | 100 | 95 | 99 |  |  | Percent Control of Broadleaf Weeds ABUTH (Broadleaf Weeds): 60%; Percent Control of Broadleaf Weeds ABUTH (Broadleaf Weeds; Combination Example 4): 60%; Percent Control of Broadleaf Weeds AMARE (Broadleaf Weeds): 60%; Percent Control of Broadleaf Weeds AMARE (Broadleaf Weeds; Combination Example 4): 60%; Percent Control of Broadleaf Weeds AMBEL (Broadleaf Weeds): 40%; Percent Control of Broadleaf Weeds AMBEL (Broadleaf Weeds; Combination Example 4): 40%; Percent Control of Broadleaf Weeds CASOB (Broadleaf Weeds): 0%; Percent Control of Broadleaf Weeds CASOB (Broadleaf Weeds; Combination Example 4): 0%; Percent Control of Broadleaf Weeds CHEAL (Broadleaf Weeds): 90%; Percent Control of Broadleaf Weeds CHEAL (Broadleaf Weeds; Combination Example 4): 90%; Percent Control of Broadleaf Weeds IPOHE (Broadleaf Weeds): 80%; Percent Control of Broadleaf Weeds IPOHE (Broadleaf Weeds; Combination Example 4): 80% |
| Nn1c(C(F)(F)F)cc(=S)n(-c2cc(Oc3ccc(Cl)cn3)c(Cl)cc2F)c1=O [Compound 9-28, 1-amino-3-[4-chloro-2-fluoro-5-(5-chloro-2-pyridyloxy)phenyl]-6-trifluoromethyl-1,2,3,4tetrahydro-2-oxo-4-thioxopyrimidine] |  |  | 100 | 100 | 20 | 80 | 20 | 80 |  |  |  |
